Where two headings read alike, the source gives them in different places. One block for each compound: values may come before it.
Tests used:
human AR [1] = target: T1, human AR (Homo sapiens, UniProt P10275); test: Competitive AR binding assay against [3H]-R1881 in transiently transfected COS-1 cells; conditions: compound 13.4 μM, [3H]-R1881 1.34 nM, complete inhibition equals 100%; for inhibition at 13.4 µM: read-out: Inhibition of [3H]-R1881 binding at 1.34 nM ± S.D.
T1 construct: expressed in transfected cells; host or cells: COS-1
T1 sequence (P10275 1-920): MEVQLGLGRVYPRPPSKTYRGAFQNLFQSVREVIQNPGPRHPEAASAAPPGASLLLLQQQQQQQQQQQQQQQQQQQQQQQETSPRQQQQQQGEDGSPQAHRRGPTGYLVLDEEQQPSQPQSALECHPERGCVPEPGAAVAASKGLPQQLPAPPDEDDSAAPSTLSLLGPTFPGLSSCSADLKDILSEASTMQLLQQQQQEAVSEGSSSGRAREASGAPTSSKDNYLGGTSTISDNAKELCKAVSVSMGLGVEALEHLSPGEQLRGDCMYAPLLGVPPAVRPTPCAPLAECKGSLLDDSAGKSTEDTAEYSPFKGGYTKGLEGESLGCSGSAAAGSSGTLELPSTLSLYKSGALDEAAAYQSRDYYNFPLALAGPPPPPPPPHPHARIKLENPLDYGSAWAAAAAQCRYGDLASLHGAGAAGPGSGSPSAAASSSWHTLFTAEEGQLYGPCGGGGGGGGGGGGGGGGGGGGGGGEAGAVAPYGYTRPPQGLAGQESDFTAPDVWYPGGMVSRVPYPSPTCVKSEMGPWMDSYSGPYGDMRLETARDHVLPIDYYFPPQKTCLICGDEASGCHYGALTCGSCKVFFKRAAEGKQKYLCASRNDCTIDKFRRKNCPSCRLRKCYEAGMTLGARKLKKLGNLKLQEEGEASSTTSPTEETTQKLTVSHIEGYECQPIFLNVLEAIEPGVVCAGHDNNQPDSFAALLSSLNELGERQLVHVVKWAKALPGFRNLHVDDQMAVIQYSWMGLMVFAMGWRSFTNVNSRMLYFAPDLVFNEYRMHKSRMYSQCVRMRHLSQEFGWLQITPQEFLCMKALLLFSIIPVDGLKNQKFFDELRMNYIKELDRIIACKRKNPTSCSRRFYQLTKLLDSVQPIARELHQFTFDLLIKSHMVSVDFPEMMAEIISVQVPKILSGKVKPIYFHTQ
Outline: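 COS-1 cells transfected 24 h with human AR vector, then after 36 h exposed 2 h at 37° C to compound at 10000-fold molar excess over 1.34 nM [3H]-R1881. Cell-bound radioactivity counted in triplicate; result given as % inhibition of labelled R1881 binding.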

human AR [2] = target: T1, human AR; test: AR antagonism assay: inhibition of transcriptional activation of AR (Probasin-luc reporter, COS-1 cells); format: cell-based; conditions: compound 10.0 μM, relative luciferase response: 100% for testosterone (no antiandrogenic effect), 0% for complete antagonism; for remaining activity at 10 µM: COS-1, 18 h, read-out: AR antagonism against 100 nM testosterone ± S.D.
Procedure: Determination of the Antiandrogen Activity.
Testosterone was bought from Sigma Chemical Co. (St. Louis, Mo.) and hydroxyflutamide from Chemos GmbH. One day before transfection, COS-1 cells (from ATCC) were seeded into 1 ml of DMEM (Dulbecco's modified Eagle medium, Gibco) with 10% dextran-charcoal-treated fetal bovine serum and 0.25% (vol/vol) Penicillin-Streptomycin (Euroclone) at a density of 70×10^3 cells/well. After medium change to DMEM 2.5% FBS, the cells were transfected for 24 hours with 10 ng/well of human AR expression vector pSG5-hAR, 100 ng/well of reporter plasmid Probasin-luc, and 10 ng/well of control plasmid pCMV-β-gal by using the TransIT method (Micrus Bio TransIT LT1, Transfection Reagent). After the transfection, the cells received treatment of test compounds giving final concentration of 10 μM for each compound. In the antagonist test the wells were also treated with 100 nM final concentration of testosterone. After 18 hours, the cells were washed, lysed and assayed for luciferase and normalization for β-galactosidase activities and protein concentrations. The cells were washed with 100 μl of cold phosphate buffered saline (PBS) and lysed with 35 μl 1× Reporter lysis Buffer (Promega) and frozen (−70° C.) for 30 minutes. Cell lysates were placed in 1.5-ml propylene tubes and centrifuged at 13200×g for 5 minutes at room temperature. For β-galactosidase assay 10 μl of supernatant from each cell extract was transferred to a 96-well plate (96 well Elisa Microplates, PS, Microcon) and incubated for 10 minutes at 37° C. with 65 μl of reaction mixture consisting 0.76 μl 100×Mg-buffer, 12.5 μl ONPG (4 mg/ml), and 54.3 μl of sodium-phosphate buffer (pH 7). The reaction was stopped with treatment of 125 μl Na2CO3. For luciferase assay 10 μl of the supernatant was transferred to a 96-well plate (Greiner Microlon lumitrac 200) and treated with 30 μl of luciferase assay substrate solution (Promega Luciferase Assay System E1501). For the study of protein concentrations 5 μl of the supernatant was transferred to a 96-well plate (Elisa Microplates, PS, Microcon) and mixed with 200 μl of Bio-rad protein assay reagent. The luciferase activities were measured with Thermo Luminoscan Ascent scanner and the protein concentrations and β-galactosidase activities with Thermo Labsystem Multiscan Ex scanner. Also blank and control samples were measured. During the maintenance, transfection, and treatment with tested compounds the cells were incubated in humidified atmosphere with 5% carbon dioxide at 37° C.

Compound: COc1cccc(C2=NOC(Cc3ccccc3)(c3ccccc3)C2)c1 (stereo not shown) [Example 13, 5-Benzyl-5-phenyl-3-(3-methoxyphenyl)-4,5-dihydro-isoxazole]
melting point: 94.4 to 95.2 °C

Compound: Oc1ccc(C2=NOC(Cc3ccccc3)(c3ccccc3)C2)cc1 (stereo not shown) [Example 80, 5-Benzyl-3-(4-hydroxyphenyl)-5-phenyl-4,5-dihydro-isoxazole]
melting point: 151.3 to 153.9 °C

Compound: Clc1ccc(C2=NOC3CCCCC23)cc1 (single isomer, unassigned) [Example 32b, 3-(4-Chloro-phenyl)-3a,4,5,6,7,7a-hexahydro-benzo[d]-isoxazole]
Inhibition of [3H]-R1881 binding at 1.34 nM ± S.D. (human AR [1]; Table 1): 0%
AR antagonism against 100 nM testosterone ± S.D. (human AR [2]): 91.4 ± 7.7%

Compound: O=[N+]([O-])c1ccc(C2=NOC3CCCCCCC23)c(C(F)(F)F)c1 (stereo not shown) [Example 46b, 3-(4-Nitro-2-trifluoromethyl-phenyl)-3a,4,5,6,7,8,9,9a-octahydro-cycloocta[d]isoxazole]
Inhibition of [3H]-R1881 binding at 1.34 nM ± S.D. (human AR [1]; Table 3): 90.4 ± 3.8%
AR antagonism against 100 nM testosterone ± S.D. (human AR [2]): 2.2 ± 0.8%

Compound: N#Cc1ccc(C2=NOC3CCCCCC23)c(C(F)(F)F)c1 (stereo not shown) [Example 91b, 4-(4,5,6,7,8,8a-Hexahydro-3aH-cyclohepta[d]isoxazol-3-yl)-3-trifluoromethyl benzonitrile]
Inhibition of [3H]-R1881 binding at 1.34 nM ± S.D. (human AR [1]; Table 2): 87.4 ± 2.7%
AR antagonism against 100 nM testosterone ± S.D. (human AR [2]): 27.2 ± 4.8%

Compound: N#Cc1cccc(C2=NOC3CCCCCC23)c1C(F)(F)F (stereo not shown) [Example 95b, 3-(4,5,6,7,8,8a-Hexahydro-3aH-cyclohepta[d]isoxazol-3-yl)-2-trifluoromethyl-benzonitrile]
Inhibition of [3H]-R1881 binding at 1.34 nM ± S.D. (human AR [1]; Table 3): 98.1 ± 0.3%
AR antagonism against 100 nM testosterone ± S.D. (human AR [2]): 19.2 ± 2.9%

Compound: O=[N+]([O-])c1ccc(C2=NOC3CCCC23)cc1C(F)(F)F (single isomer, unassigned) [Example 21b, 3-(4-Nitro-3-trifluoromethyl-phenyl)-4,5,6,6a-tetrahydro-3aH-cyclopenta[d]isoxazole]
Inhibition of [3H]-R1881 binding at 1.34 nM ± S.D. (human AR [1]; Table 3): 90.9 ± 0.9%
AR antagonism against 100 nM testosterone ± S.D. (human AR [2]): 22.9 ± 4.9%

Compound: Clc1ccc(C2=NOC3CCCCC23)cc1 (single isomer, unassigned) [Example 32a, 3-(4-Chloro-phenyl)-3a,4,5,6,7,7a-hexahydro-benzo[d]-isoxazole]
Inhibition of [3H]-R1881 binding at 1.34 nM ± S.D. (human AR [1]; Table 1): 30.5 ± 5.4%
AR antagonism against 100 nM testosterone ± S.D. (human AR [2]): 40.9 ± 2.4%

Compound: N#Cc1ccc(C2=NOC3CCCC23)c(C(F)(F)F)c1 (stereo not shown) [Example 86ab, 4-(4,5,6,6a-Tetrahydro-3aH-cyclopenta[d]isoxazol-3-yl)-3-trifluoromethyl-benzonitrile]
inhibition at 13.4 µM (human AR [1]; Table 3): 91.7 ± 1.7%
remaining activity at 10 µM (human AR [2]): 29.3 ± 3.7%

Compound: N#Cc1ccc(C2=NOC3CCCC23)cc1C(F)(F)F (single isomer, unassigned) [Example 85a, 4-(4,5,6,6a-Tetrahydro-3aH-cyclopenta[d]isoxazol-3-yl)-2-trifluoromethyl-benzonitrile]
inhibition at 13.4 µM (human AR [1]; Table 2): 87.6 ± 0.3%
AR antagonism against 100 nM testosterone ± S.D. (human AR [2]): 44.9 ± 3.6%

Compound: N#Cc1ccc(C2=NOC3CCCCCC23)cc1C(F)(F)F (stereo not shown) [Example 90ab, 4-(4,5,6,7,8,8a-Hexahydro-3aH-cyclohepta[d]isoxazol-3-yl)-2-trifluoromethyl-benzonitrile]
inhibition at 13.4 µM (human AR [1]; Table 2): 98.7 ± 0.6%
remaining activity at 10 µM (human AR [2]): 12.6 ± 0.7%

Compound: O=[N+]([O-])c1ccc(C2=NOC3CCCCCCC23)c(C(F)(F)F)c1 (stereo not shown) [Example 46a, 3-(4-Nitro-2-trifluoromethyl-phenyl)-3a,4,5,6,7,8,9,9a-octahydro-cycloocta[d]isoxazole]
inhibition at 13.4 µM (human AR [1]; Table 3): 86.4 ± 1.8%
remaining activity at 10 µM (human AR [2]): 3.1 ± 1.7%

Compound: O=[N+]([O-])c1ccc(C2=NOC3CCCC23)c(C(F)(F)F)c1 (stereo not shown) [Example 22ab, 3-(4-Nitro-2-trifluoromethyl-phenyl)-4,5,6,6a-tetrahydro-3aH-cyclopenta[d]isoxazole]
inhibition at 13.4 µM (human AR [1]; Table 3): 89.3 ± 4.7%
remaining activity at 10 µM (human AR [2]): 21.8 ± 4.1%

Results, then the compound that gave them:

Inhibition of [3H]-R1881 binding at 1.34 nM ± S.D. (human AR [1]; Table 2): 87.7 ± 3.0%
AR antagonism against 100 nM testosterone ± S.D. (human AR [2]): 30.0 ± 6.1%
Compound: Fc1ccc(C2=NOC3CCCCC23)c(C(F)(F)F)c1 (stereo not shown) [Example 36b, 3-(4-Fluoro-2-trifluoromethyl-phenyl)-3a,4,5,6,7,7a-hexahydro-benzo[d]-isoxazole]

inhibition at 13.4 µM (human AR [1]; Table 1): 93.5 ± 0.9%
remaining activity at 10 µM (human AR [2]): 10.6 ± 1.6%
Compound: O=[N+]([O-])c1ccc(C2=NOC3CCCCC23)cc1C(F)(F)F (stereo not shown) [Example 37ab, 3-(4-Nitro-3-trifluoromethyl-phenyl)-3a,4,5,6,7,7a-hexahydro-benzo-[d]-isoxazole]

inhibition at 13.4 µM (human AR [1]; Table 2): 76 ± 0.3%
AR antagonism against 100 nM testosterone ± S.D. (human AR [2]): 56.6 ± 1.4%
Compound: Fc1ccc(C2=NOC3CCCCCCC23)cc1C(F)(F)F (stereo not shown) [Example 43b, 3-(4-Fluoro-3-trifluoromethyl-phenyl)-3a,4,5,6,7,8,9,9a-octahydro-cycloocta[d]isoxazole]

inhibition at 13.4 µM (human AR [1]; Table 2): 97.8 ± 0.5%
remaining activity at 10 µM (human AR [2]): 10.1 ± 0.9%
Compound: O=[N+]([O-])c1ccc(C2=NOC3CCCCCC23)cc1C(F)(F)F (stereo not shown) [Example 41ab, 3-(4-Nitro-3-trifluoromethyl-phenyl)-4,5,6,7,8,8a-hexahydro-3aH-cyclohepta[d]isoxazole]

inhibition at 13.4 µM (human AR [1]; Table 3): 90.3 ± 2.7%
remaining activity at 10 µM (human AR [2]): 19.8 ± 0.5%
Compound: Fc1ccc(C2=NOC3CCCCCCC23)c(C(F)(F)F)c1 (stereo not shown) [Example 44a, 3-(4-Fluoro-2-trifluoromethyl-phenyl)-3a,4,5,6,7,8,9,9a-octahydro-cycloocta[d]isoxazole]

inhibition at 13.4 µM (human AR [1]; Table 2): 88.5 ± 4.2%
remaining activity at 10 µM (human AR [2]): 53.4 ± 5.4%
Compound: Fc1ccc(C2=NOC3CCCCC23)cc1C(F)(F)F (stereo not shown) [Example 35ab, 3-(4-Fluoro-3-trifluoromethyl-phenyl)-3a,4,5,6,7,7a-hexahydro-benzo-[d]-isoxazole]

inhibition at 13.4 µM (human AR [1]; Table 3): 85.7 ± 3.8%
remaining activity at 10 µM (human AR [2]): 27.8 ± 1%
Compound: O=[N+]([O-])c1ccc(C2=NOC3CCCCCCC23)cc1C(F)(F)F (stereo not shown) [Example 45ab, 3-(4-Nitro-3-trifluoromethyl-phenyl)-3a,4,5,6,7,8,9,9a-octahydro-cycloocta[d]isoxazole]

inhibition at 13.4 µM (human AR [1]; Table 2): 84.6 ± 0.7%
remaining activity at 10 µM (human AR [2]): 49.7 ± 5.1%
Compound: Fc1ccc(C2=NOC3CCCCC23)c(C(F)(F)F)c1 (stereo not shown) [Example 36a, 3-(4-Fluoro-2-trifluoromethyl-phenyl)-3a,4,5,6,7,7a-hexahydro-benzo[d]-isoxazole]

From patent US9278942B2, “Non-steroidal compounds as androgen receptor modulators” (FLX Discoveries Oy, priority 2011, dated 2016)
